Molecules are shown by their SMILES. Counter-ions that a name gives are not always drawn.

Chain of human GPR119 (Q8TDV5 whole entry): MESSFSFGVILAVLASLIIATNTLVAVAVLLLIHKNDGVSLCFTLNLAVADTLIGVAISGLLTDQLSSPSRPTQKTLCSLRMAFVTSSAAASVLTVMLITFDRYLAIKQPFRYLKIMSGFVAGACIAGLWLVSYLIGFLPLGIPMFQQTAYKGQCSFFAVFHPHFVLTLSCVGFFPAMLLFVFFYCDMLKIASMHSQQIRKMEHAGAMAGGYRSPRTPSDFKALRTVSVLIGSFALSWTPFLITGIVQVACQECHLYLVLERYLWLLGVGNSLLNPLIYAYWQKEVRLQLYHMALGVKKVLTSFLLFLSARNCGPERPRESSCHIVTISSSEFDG

The assay concerns the target human GPR119 (Homo sapiens (Human), UniProt Q8TDV5). Put plainly: AlphaScreen cAMP assay in Min-6/hGPR119 cells (GPR119 activation, intracellular cAMP). Type of assay: cell-based. As to conditions: MIN6 cells stably transfected with human GPR119; 45 minutes' incubation at RT; AlphaScreen cAMP Assay Kit. The gist of the method:
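MIN6 cells stably expressing human GPR119 plated 10000 cells/well and held 24 h at 37° C. Compounds applied in stimulating buffer, pH 7.4, with 0.5 mM IBMX, 0.1% BSA, 1% DMSO final, for 45 min at RT. Intracellular cAMP read by AlphaScreen.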
The compound `O=C1NN=C([C@@H]2CCc3nc(-c4ccccc4)oc3C2)[C@H]2C[C@@H]12` [Example 132, (1R,6S)-5-((R)-2-phenyl-4,5,6,7-tetrahydro-benzoxazol-6-yl)-3,4-diaza-bicyclo[4.1.0]hept-4-en-2-one] yielded an EC50 of 4160 nM.
For `C=CCC1CC(c2ccc3nc(-c4ccccc4)oc3c2)=NNC1=O` (centres unmarked) [Example 7, 4-allyl-6-(2-phenyl-benzoxazol-6-yl)-4,5-dihydro-2H-pyridazin-3-one] the value was 892 nM; for `C[C@@H]1C(c2ccc3nc(-c4ccccc4)oc3c2)=NNC(=O)[C@@H]1C` [Example 25, (4R,5S)-4,5-dimethyl-6-(2-phenyl-benzoxazol-6-yl)-4,5-dihydro-2H-pyridazin-3-one], 2370 nM; for `CCC1CC(=O)NN=C1c1ccc2nc(-c3ccc(OCc4nc(C(C)C)no4)cc3)oc2c1` (centres unmarked) [Example 50, 5-ethyl-6-{2-[4-(3-isopropyl-[1,2,4]oxadiazol-5-ylmethoxy)-phenyl]-benzoxazol-6-yl}-4,5-dihydro-2H-pyridazin-3-one], 223 nM.
For the compound `CCC1CC(=O)NN=C1c1ccc2nc(-c3cccc(OCc4ccncc4)c3)oc2c1` (centres unmarked) [Example 150, 5-ethyl-6-{2-[3-(pyridin-4-ylmethoxy)-phenyl]-benzoxazol-6-yl}-4,5-dihydro-2H-pyridazin-3-one], the EC50 was determined as 1260 nM.
Next, `Cc1cccc(-c2nc3ccc(C4=NNC(=O)C5CC45)cc3o2)c1` (centres unmarked) [Example 12, 5-(2-m-tolyl-benzoxazol-6-yl)-3,4-diaza-bicyclo[4.1.0]hept-4-en-2-one]: 246 nM.
Next, `CCCN(CCOc1ccc(-c2nc3ccc(C4=NNC(=O)CC4CC)cc3o2)cc1)C(C)C` (centres unmarked) [Example 249, 5-ethyl-6-(2-{4-[2-(isopropyl-propyl-amino)-ethoxy]-phenyl}-benzoxazol-6-yl)-4,5-dihydro-2H-pyridazin-3-one]: 58 nM.
For `CC[C@@H]1OC(=O)NN=C1N1CCc2nc(-c3ccccc3)oc2C1` [Example 207, (S)-6-ethyl-5-(2-phenyl-6,7-dihydro-4H-oxazolo[5,4-c]pyridin-5-yl)-3,6-dihydro-[1.3.4]oxadiazin-2-one] the value was 578 nM; for `CC1CC(=O)NN=C1c1ccc2nc(-c3ccc(Cl)cc3)oc2c1` (centres unmarked) [Example 84, 6-[2-(4-chloro-phenyl)-benzoxazol-6-yl]-5-methyl-4,5-dihydro-2H-pyridazin-3-one], 132 nM.
`CCC[C@H]1C(=O)NN=C(c2ccc3nc(-c4ccc(C)s4)oc3c2)[C@@H]1C` (relative stereo) [Example 184, trans-5-methyl-6-[2-(5-methyl-thiophen-2-yl)-benzoxazol-6-yl]-4-propyl-4,5-dihydro-2H-pyridazin-3-one] came in with an EC50 of 53 nM.
Next, `CC1CC(=O)NN=C1c1ccc2nc(-c3cccc(OCc4ccccc4)c3)oc2c1` (centres unmarked) [Example 34, 6-[2-(3-benzyloxy-phenyl)-benzoxazol-6-yl]-5-methyl-4,5-dihydro-2H-pyridazin-3-one]: 193 nM.
Next, `CCC1CC(=O)NN=C1c1ccc2nc(-c3ccc(OC4CCCC4)cc3)oc2c1` (centres unmarked) [Example 176, 6-[2-(4-cyclopentyloxy-phenyl)-benzoxazol-6-yl]-5-ethyl-4,5-dihydro-2H-pyridazin-3-one]: 82 nM; `CCC1CC(=O)NN=C1c1ccc2nc(-c3ccc(OC[C@H]4CCCN4C(C)C)cc3)oc2c1` (some centres unmarked) [Example 241, 5-ethyl-6-{2-[4-(1-isopropyl-R-pyrrolidin-2-yl-methoxy)-phenyl]-benzoxazol-6-yl}-4,5-dihydro-2H-pyridazin-3-one]: 191 nM.
Next, `CCC1CC(c2ccc3nc(-c4cccs4)oc3c2)=NNC1=O` (centres unmarked) [Example 141, 4-ethyl-6-(2-thiophen-2-yl-benzoxazol-6-yl)-4,5-dihydro-2H-pyridazin-3-one]: 7330 nM.
As for `O=C1CC(C2CC2)C(N2CCc3nc(-c4ccccc4)oc3C2)=NN1` (centres unmarked) [Example 138, 5-cyclopropyl-6-(2-phenyl-6,7-dihydro-4H-oxazolo[5,4-c]pyridin-5-yl)-4,5-dihydro-2H-pyridazin-3-one], the EC50 amounted to 1310 nM.
For the compound `CCC[C@@H]1C(=O)NN=C(c2ccc3nc(-c4ccc(OCCN5C[C@@H](C)O[C@@H](C)C5)cc4)oc3c2)[C@H]1C` [Example 223, Trans-6-(2-{4-[2-(2S,6R-dimethyl-morphoin-4-yl)-ethoxy]-phenyl}-benzoxazol-6-yl)-5-methyl-4-propyl-4,5-dihydro-2H-pyridazin-3-one], a half-maximal effect (EC50) was put at 46 nM.
Next, `CCC[C@H]1C(=O)NN=C(c2ccc3nc(C4CC4)oc3c2)[C@@H]1C` (stereo in doubt) [Example 253, 6-(2-cyclopropyl-benzoxazol-6-yl)-5-methyl-4-propyl-4,5-dihydro-2H-pyridazin-3-one]: 299 nM; `O=C1NN=C(c2ccc3nc(-c4ccccc4F)oc3c2)C2CC12` (centres unmarked) [Example 20, 5-[2-(2-fluoro-phenyl)-benzoxazol-6-yl]-3,4-diaza-bicyclo[4.1.0]hept-4-en-2-one]: 157 nM; `CCC1SC(=O)NN=C1c1ccc2nc(-c3ccccc3)oc2c1` (centres unmarked) [Example 77, 6-ethyl-5-(2-phenyl-benzoxazol-6-yl)-3,6-dihydro-[1,3,4]thiadiazin-2-one]: 141 nM.
For `O=C1NN=C(c2ccc3nc(-c4ccccc4)oc3c2)C2CC12` (centres unmarked) [Example 5, 5-(2-phenyl-benzoxazol-6-yl)-3,4-diaza-bicyclo[4.1.0]hept-4-en-2-one] the value was 243 nM; for `CCC1CC(=O)NN=C1c1ccc2nc(-c3ccc(OCC(=O)N(C)C)cc3)oc2c1` (centres unmarked) [Example 41, 2-{4-[6-(4-ethyl-6-oxo-1,4,5,6-tetrahydro-pyridazin-3-yl)-benzoxazol-2-yl]-phenoxy}-N,N-dimethyl-acetamide], 1520 nM.
Next, `CCC[C@H]1C(=O)NN=C(c2ccc3nc(-c4cc(C)oc4C)oc3c2)[C@@H]1C` (relative stereo) [Example 189, trans-6-[2-(2,5-dimethyl-furan-3-yl)-benzoxazol-6-yl]-5-methyl-4-propyl-4,5-dihydro-2H-pyridazin-3-one]: 127 nM; `CCC1CC(=O)NN=C1c1ccc2nc(-c3ccc(OCC(C)(C)N4CCOCC4)cc3)oc2c1` (centres unmarked) [Example 232, 5-ethyl-6-{2-[4-(2-methyl-2-morpholin-4-yl-propoxy)-phenyl]-benzoxazol-6-yl}-4,5-dihydro-2H-pyridazin-3-one]: 69 nM.
The compound `CCC1CC(=O)NN=C1c1ccc2nc(-c3ccc(OCCCN(C)C)cc3)oc2c1` (centres unmarked) [Example 62, 6-{2-[4-(3-dimethylamino-propoxy)-phenyl]-benzoxazol-6-yl}-5-ethyl-4,5-dihydro-2H-pyridazin-3-one] gave an EC50 of 552 nM.
Next, `CCC1CC(=O)NN=C1c1ccc2nc(-c3ccc(OC(C)C)cc3)oc2c1` (centres unmarked) [Example 99, 5-ethyl-6-[2-(4-isopropoxy-phenyl)-benzoxazol-6-yl]-4,5-dihydro-2H-pyridazin-3-one]: 59 nM; `CC[C@@H]1CC(=O)NN=C1c1ccc2nc(-c3ccc(OCC(C)N4CCCCC4)cc3)oc2c1` (stereo partly drawn) [Example 237, 5(R)-ethyl-6-{2-[4-(2-piperidin-1-yl-propoxy)-phenyl]-benzoxazol-6-yl}-4,5-dihydro-2H-pyridazin-3-one]: 73 nM; `C=CCOc1ccc(-c2nc3ccc(C4=NNC(=O)CC4CC)cc3o2)cc1` (centres unmarked) [Example 213, 6-[2-(4-allyloxy-phenyl)-benzoxazol-6-yl]-5-ethyl-4,5-dihydro-2H-pyridazin-3-one]: 241 nM.
For `CC[C@H]1C(=O)NN=C(c2ccc3nc(-c4ccccc4)oc3c2)[C@H]1C` [Example 127, (4R,5S)-4-ethyl-5-methyl-6-(2-phenyl-1,3-benzoxazol-6-yl)-2,3,4,5-tetrahydropyridazin-3-one] the value was 2590 nM; for `CC[C@@H]1CC(=O)NN=C1c1ccc2nc(-c3ccccc3)oc2c1` [Example 31, (R)-5-ethyl-6-(2-phenyl-benzoxazol-6-yl)-4,5-dihydro-2H-pyridazin-3-one], 66 nM; for `COc1ccccc1-c1nc2ccc(C3=NNC(=O)CC3C)cc2o1` (centres unmarked) [Example 86, 6-[2-(2-methoxy-phenyl)-benzoxazol-6-yl]-5-methyl-4,5-dihydro-2H-pyridazin-3-one], 1150 nM.
Next, `CCC[C@@H]1C(=O)NN=C(c2ccc3nc(-c4ccc(OCCN(C(C)C)C(C)C)cc4)oc3c2)[C@H]1C` (relative stereo) [Example 170, trans-6-{2-[4-(2-diisopropylamino-ethoxy)-phenyl]-benzoxazol-6-yl}-5-methyl-4-propyl-4,5-dihydro-2H-pyridazin-3-one]: 53 nM; `CCC[C@H]1C(=O)NN=C(c2ccc3nc(-c4ccc(OCCN(C(C)C)C(C)C)cc4)oc3c2)[C@H]1C` (relative stereo) [Example 169, cis-6-{2-[4-(2-diisopropylamino-ethoxy)-phenyl]-benzoxazol-6-yl}-5-methyl-4-propyl-4,5-dihydro-2H-pyridazin-3-one]: 1040 nM; `CCC[C@H]1C(=O)NN=C(c2ccc3nc(-c4ccc(Cl)cc4)oc3c2)[C@@H]1C` (relative stereo) [Example 185, trans-6-[2-(4-chloro-phenyl)-benzoxazol-6-yl]-5-methyl-4-propyl-4,5-dihydro-2H-pyridazin-3-one]: 142 nM.
In turn, `CCC1CC(=O)NN=C1c1ccc2nc(-c3ccc(OC[C@@H]4CCCN4)cc3)oc2c1` (some centres unmarked) [Example 238, 5-ethyl-6-{2-[4-(S-pyrrolidin-2-yl-methoxy)-phenyl]-benzoxazol-6-yl}-4,5-dihydro-2H-pyridazin-3-one×HCl] displayed an EC50 of 2950 nM.
For `CCC[C@@H]1C(=O)NN=C(c2ccc3nc(-c4ccc(OCCN5CCCCC5)cc4)oc3c2)[C@H]1C` (stereo in doubt) [Example 173, trans-5-methyl-6-{2-[4-(3-piperidin-1-yl-ethoxy)-phenyl]-benzoxazol-6-yl}-4-propyl-4,5-dihydro-2H-pyridazin-3-one] the value was 218 nM.

These data come from US8772323B2, “Benzoxazole- and tetrahydrobenzoxazole-substituted pyridazinones as GPR119 agonists” (Boehringer Ingelheim International GmbH, priority 2010, dated 2014).
